Experimental data published in publication PMC5607274, “An iterative compound screening contest method for identifying target protein inhibitors using the tyrosine-protein kinase Yes” (Scientific Reports, 2017).

Biological target: T1, human recombinant Yes [a.a. 2–543 (end)] (Homo sapiens, UniProt P07947)
T1 construct: human recombinant Yes [a.a; 2–543 (end)]; purchased BPS Bioscience 40488
Assay: ADP-Glo kinase assay, inhibition rates of Yes phosphorylation activity (first and second screening)
Type: biochemical
Settings: first screening; mean of n = 4 wells; 10 μmol L−1 compound
How it was run: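 ADP-Glo luminescence measured inhibition of human recombinant Yes (a.a. 2–543) phosphorylation activity. In the first screen, each compound ran in 4 wells and inhibition rates were averaged. The second screen retested hits as compounds dissolved from fresh powder.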

T1 sequence (P07947 2-543): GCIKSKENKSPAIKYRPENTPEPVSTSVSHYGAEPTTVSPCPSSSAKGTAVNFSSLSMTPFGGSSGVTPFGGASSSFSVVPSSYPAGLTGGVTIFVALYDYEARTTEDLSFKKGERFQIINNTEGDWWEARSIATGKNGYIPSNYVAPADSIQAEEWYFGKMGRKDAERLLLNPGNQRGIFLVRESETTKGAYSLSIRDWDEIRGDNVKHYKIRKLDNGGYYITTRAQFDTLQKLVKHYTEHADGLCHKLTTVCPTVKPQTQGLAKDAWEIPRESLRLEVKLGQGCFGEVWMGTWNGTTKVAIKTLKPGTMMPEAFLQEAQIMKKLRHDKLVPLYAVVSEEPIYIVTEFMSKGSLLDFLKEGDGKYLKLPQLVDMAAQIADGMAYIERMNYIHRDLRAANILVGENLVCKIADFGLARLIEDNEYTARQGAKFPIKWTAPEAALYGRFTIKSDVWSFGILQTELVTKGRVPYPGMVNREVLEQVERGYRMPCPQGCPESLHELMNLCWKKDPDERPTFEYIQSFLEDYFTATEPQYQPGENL

| First screening IR (inhibition rate) [%] | SMILES |
| --- | --- |
| 12 | Cc1cc(C)n(-c2nc(-c3cccnc3)nc3ccccc23)n1 [Compound Z56839033] |
| 38 | CCN1CCN(c2nc3ccccc3nc2C(C#N)C(=O)NCCc2ccc(OC)c(OC)c2)CC1 (stereo not shown) [Compound Z56854281] |
| 9 | Nc1c(S(=O)(=O)c2ccccc2)c2nc3ccccc3nc2n1CCNC(=O)c1ccc(Cl)cc1 [Compound Z56854331] |
| -3 | CCOC(=O)c1c(-c2ccc(C)cc2)csc1Nc1nc2ccccc2nc1N1CCN(CC)CC1 [Compound Z56854384] |
| 7 | COc1ccc(-n2nnc3c4c(c(Nc5ccc(C)cc5)cc32)C(=O)c2ccccc2C4=O)cc1 [Compound Z56857970] |
| 2 | COc1ccc(Nc2cc3c(nnn3-c3ccc(C)cc3)c3c2C(=O)c2ccccc2C3=O)cc1 [Compound Z56857974] |
| 15 | Cc1cccc(C)c1N=C1SC(C(=O)Nc2ccc(OC(F)F)cc2)C(N)=C1C(=O)N1CCN(C)CC1 (stereo not shown) [Compound Z56863426] |
| 0 | CCCCC(CC)CN1C(=O)/C(=C/c2c(NCCCn3ccnc3)nc3c(C)cccn3c2=O)SC1=S (stereo not shown) [Compound Z56863942] |
| 0 | CCCCCCCCN1C(=O)/C(=C/c2c(NCCCN3CCOCC3)nc3c(C)cccn3c2=O)SC1=S [Compound Z56863983] |
| 2 | CCOC(=O)c1c(Nc2nc3ccccc3nc2N2CCN(Cc3ccccc3)CC2)sc(C)c1C [Compound Z56866112] |
| 7 | CN(C)S(=O)(=O)c1cccc(S(=O)(=O)c2cccc(S(=O)(=O)N(C)C)c2)c1 [Compound Z56877233] |
| -3 | CC(c1ccccc1)n1c(NC(=O)c2ccccc2)c(S(=O)(=O)c2ccccc2)c2nc3ccccc3nc21 (stereo not shown) [Compound Z56877281] |
| -5 | Cl.Nc1ccc(-c2cc(-c3ccccc3)c3cc(Cl)ccc3n2)cc1 [Compound Z56913268] |
| -3 | CC(=O)c1cccc(NC(=O)c2sc(Nc3ccc(C)cc3)c(C(=O)NCCN3CCOCC3)c2N)c1 [Compound Z56914008] |
| 16 | COc1ccc(NC(=O)c2c(Nc3ccc(OC(F)F)cc3)sc(C(=O)Nc3ccc4c(c3)OCO4)c2N)cc1Cl [Compound Z56918070] |
| 13 | Nc1ncnc(Nc2cccc(C(F)(F)F)c2)n1 [Compound Z56931708] |
| -10 | COc1ccc(CCNC(=O)Cn2c(CN3CCOCC3)nc3sc4c(c3c2=O)CCC(C)C4)cc1 (stereo not shown) [Compound Z56952971] |
| 0 | Cc1cc(C)c(NC(=O)C2CCN(c3ncnc4sc(C)c(C)c34)CC2)c(C)c1 [Compound Z57042877] |
| -7 | O=S1(=O)CCC(S(=O)(=O)Cl)C1 (stereo not shown) [Compound Z57163399] |
| 2 | Cc1ccc(C(=O)CC2(O)C(=O)Nc3ccc(Cl)cc32)cc1 (stereo not shown) [Compound Z57172226] |
| 18 | O=c1c2cccc3c2c(nn1-c1ccccc1)-c1ccccc1-3 [Compound Z57229152] |
| 20 | O=C(C1=C(O)C(=O)N(CCCn2ccnc2)C1c1ccc(Cl)cc1)c1ccco1 (stereo not shown) [Compound Z57237929] |
| 46 | COCCNC(=O)/C(=C\c1ccc(-c2cccc(Cl)c2)o1)NC(=O)c1ccc(OC)cc1 [Compound Z57239420] |
| 41 | O=S(=O)(Nc1cccc(-c2cn3ccccc3n2)c1)c1ccccc1 [Compound Z57289575] |

The next lines start with the compound.

| SMILES | First screening IR (inhibition rate) [%] |
| --- | --- |
| CCc1ccc(-c2cc(-c3ccccc3)c3c(n2)/C(=C\c2ccc(N(C)C)cc2)CCC3)cc1 [Compound Z56830412] | -14 |
| Cc1ccc(NC(=O)C(=O)c2c(-c3ccccc3)cc3ccccn23)cc1S(=O)(=O)N1CCOCC1 [Compound Z56835405] | -2 |
| COc1cc(/C=N/Nc2nc(-c3ccncc3)nc3ccccc23)ccc1O [Compound Z56841676] | 18 |
| Cc1cc(N=C2C(=O)Nc3c(Cl)cc(Cl)cc32)ccc1Br [Compound Z56849070] | 1 |
| Brc1cccc(C2C=C(c3ccccc3)Nc3ncnn32)c1 (stereo not shown) [Compound Z56850769] | 9 |
| COCCN1C(=O)/C(=C/c2c(N3CCN(Cc4ccccc4)CC3)nc3ccc(C)cn3c2=O)SC1=S [Compound Z56850824] | -11 |
| COc1ccc(CCNC(=O)C(C#N)c2nc3ccccc3nc2N2CCN(Cc3ccccc3)CC2)cc1 (stereo not shown) [Compound Z56851971] | 3 |
| Cn1nc([N+](=O)[O-])c2c(-c3nc4ccccc4n3C)c(N)n(C3CCCCC3)c2c1=O [Compound Z56852588] | 5 |
| N#CC(C(=O)NCc1ccc2c(c1)OCO2)c1nc2ccccc2nc1N1CCN(Cc2ccccc2)CC1 (stereo not shown) [Compound Z56854297] | -7 |
| CN(C)S(=O)(=O)c1cc(S(=O)(=O)c2ccc(Cl)c(S(=O)(=O)N(C)C)c2)ccc1Cl [Compound Z56862791] | 1 |
| Cc1cc(=O)[nH]c(SCC(=O)c2ccc3c(c2)NC(=O)CO3)n1 [Compound Z56863397] | -14 |
| O=C(NC1(C(F)(F)F)Oc2ccccc2O1)Sc1ccccc1 [Compound Z56864837] | 42 |
| COc1ccc(/C(O)=C2\C(=O)C(=O)N(CCN3CCNCC3)C2c2cccc(Oc3ccccc3)c2)cc1 (stereo not shown) [Compound Z56865657] | 6 |
| Cc1cc(/C(O)=C2\C(=O)C(=O)N(CCN3CCOCC3)C2c2ccc(F)cc2)ccc1OCC(C)C (stereo not shown) [Compound Z56865693] | -1 |
| COC(=O)c1c(Nc2nc3ccccc3nc2N2CCN(C/C=C/c3ccccc3)CC2)sc(C)c1C [Compound Z56867786] | 11 |
| O=S(=O)(c1cccc(-c2n[nH]c(-c3ccccc3)c2-c2nc3ccccc3[nH]2)c1)N1CCCC1 [Compound Z56870429] | -20 |
| COc1ccc(CCn2c(N)c(C(=O)NCc3ccc4c(c3)OCO4)c3nc4ccccc4nc32)cc1OC [Compound Z56872869] | 34 |
| CCCCCn1c(N)c(C(=O)NCCN2CCOCC2)c2nc3ccccc3nc21 [Compound Z56872965] | 48 |
| NS(=O)(=O)c1ccc(Cl)c(S(N)(=O)=O)c1 [Compound Z56877166] | 0 |
| CN(C)S(=O)(=O)c1ccc(Cl)c(S(=O)(=O)N(C)C)c1 [Compound Z56877204] | 7 |
| NS(=O)(=O)c1cc(S(=O)(=O)c2ccc(Cl)c(S(N)(=O)=O)c2)ccc1Cl [Compound Z56888775] | -18 |

| SMILES | First screening IR (inhibition rate) [%] |
| --- | --- |
| CSc1ncccc1C(=O)OCC(=O)Nc1nc2ccccc2s1 [Compound Z56896575] | -4 |
| Cc1c(N=C2SC(CC(=O)Nc3ccc(F)cc3)C(=O)N2CC2CCCCC2)c(=O)n(-c2ccccc2)n1C (stereo not shown) [Compound Z56900652] | 8 |
| Cc1ccc(/C=C/C2=Cc3c(sc(N)c3C#N)C(C)(C)C2)o1 [Compound Z56910454] | 31 |
| Cc1[nH]n(-c2ccccc2)c(=O)c1/C(=N/NC(=O)c1cc(-c2ccccc2)n[nH]1)c1ccccc1 [Compound Z56919929] | 1 |
| Cc1ccc(-c2nn3c(=O)c4c5c(sc4nc3c3ccccc23)CC(C(C)(C)C)CC5)cc1 (stereo not shown) [Compound Z56929220] | -24 |
| Nc1ncnc(Nc2ccc(F)cc2)n1 [Compound Z56931701] | -4 |
| Nc1ncnc(Nc2ccccc2F)n1 [Compound Z56931704] | 12 |
| COc1ccc(Nc2ncnc(N)n2)cc1 [Compound Z56938001] | 14 |
| N#Cc1c(NC(=O)COC(=O)c2cn(-c3ccccc3)nc2-c2cccnc2)oc(-c2ccccc2)c1-c1ccccc1 [Compound Z56941227] | -9 |
| Cc1ccc(N(C(=O)c2ccc(C(C)(C)C)cc2)C2C=CS(=O)(=O)C2)cc1 (stereo not shown) [Compound Z56970107] | 4 |
| O=S(=O)(Cl)c1ccc(S(=O)(=O)N2CCCC2)cc1 [Compound Z56979291] | 9 |
| CCOc1ccc(-c2nc3ccccc3c(-c3ccccc3)c2Cl)cc1.Cl [Compound Z57038735] | 51 |
| COc1ccc(Nc2nc(NCCN3CCOCC3)nc(Nc3ccc(OC)cc3)n2)cc1 [Compound Z57049315] | 6 |
| O=S1(=O)C=C(Cl)C(Br)C1 (stereo not shown) [Compound Z57056476] | 1 |
| O=S1(=O)CCC(SSC2CCS(=O)(=O)C2)C1 (stereo not shown) [Compound Z57056477] | 3 |
| O=S1(=O)CCC(S(=O)(=O)c2ccccc2)C1 (stereo not shown) [Compound Z57056479] | 4 |
| O=S1(=O)CC=C(S(=O)(=O)Cl)C1 [Compound Z57163400] | 4 |
| O=C(C1=C(O)C(=O)N(CCCn2ccnc2)C1c1cccc([N+](=O)[O-])c1)c1ccco1 (stereo not shown) [Compound Z57237939] | 62 |
| O=C(NCCCn1ccnc1)/C(=C/c1ccc(-c2cccc(Cl)c2)o1)NC(=O)c1ccccc1 [Compound Z57239426] | 2 |
| O=C1C(=O)N(CCCn2ccnc2)C(c2ccc(F)cc2)/C1=C(\O)c1ccc(Cl)cc1 (stereo not shown) [Compound Z57239976] | -5 |
| Cc1ccnc(Nc2nc3ccccc3s2)n1 [Compound Z57289339] | -13 |

Same assay, conditions: second screening, dissolved from fresh powder; n = 4; 10 μmol L−1 compound

| Second screening IR (inhibition rate) [%] | SMILES |
| --- | --- |
| -24 | COc1ccc(CCn2c(N)c(C(=O)NCc3ccc4c(c3)OCO4)c3nc4ccccc4nc32)cc1OC [Compound Z56872869] |
| 36 | Cc1ccc(/C=C/C2=Cc3c(sc(N)c3C#N)C(C)(C)C2)o1 [Compound Z56910454] |
| 2 | CCOc1ccc(-c2nc3ccccc3c(-c3ccccc3)c2Cl)cc1.Cl [Compound Z57038735] |
| -11 | O=C(C1=C(O)C(=O)N(CCCn2ccnc2)C1c1cccc([N+](=O)[O-])c1)c1ccco1 (stereo not shown) [Compound Z57237939] |
